# Experimental data reported in PMC6562610, “Inhibition of Hedgehog Signaling in Fibroblasts, Pancreatic, and Lung Tumor Cells by Oxy186, an Oxysterol Analogue with Drug-Like Properties” (Cells, 2019).
# How the values were obtained:
# [1] = system: 8XGliBS-luciferase reporter responsive to Gli1 in NIH3T3-E1 cells; assay: CM-induced 8XGliBS-luciferase reporter assay; type: cell-based, mouse; conditions: 72 h treatment
# Method: (§1) NIH3T3-E1 and Sufu^−/− cells cultured in 24-well plates at 90% confluence were transiently transfected with 0.1 µg of Gli response-element reporter (pGL3b-8xGli-Luciferase) plasmid, and 10 ng of pTK-Renilla-Luciferase plasmid with or without co-transfection with 10 ng of Gli1 overexpression vector, pSRα-Gli1, as previously described using Lipofectamine LTX Plus transfection reagent (Invitrogen). Twenty-four h after transfection, cells were treated with test agents for 72 h. Then the firefly and Renilla luciferase activities were measured using a dual luciferase kit (Promega, Madison, WI, USA) and a GloMax-96 Microplate Luminometer. The firefly luciferase activities were normalized to the Renilla luciferase activities. Data are reported as the mean of triplicate determinations ± SD.
# Figure 3 Inhibition of ligand-induced Hedgehog signaling. NIH3T3 cells were pretreated for 2 h with the oxysterols or various inhibitors, as indicated, in DMEM containing 5% FBS. Next, cells were treated with CAPAN-1 conditioned medium (CM) in the absence or presence of oxysterols or inhibitors. After 72 h, RNA was extracted and analyzed by Q-RT-PCR for the expression of Hh target genes Gli1 (a,b,d) and Ptch1 (c), and normalized to Oaz1 expression. […] Luciferase activity was measured and normalized to the Renilla luciferase activity. […]
# [2] = system: Gli1 transcriptional activity in NIH3T3-E1 cells; assay: Gli responsive luciferase reporter trans-activated by exogenous Gli1; type: cell-based, mouse; conditions: 72 h
# Method: as §1
# Figure 5 Oxy186 acts downstream of Smo. (a) Sufu^−/− mouse embryonic fibroblast (MEF) cells were treated with DMEM containing 10% FBS in the presence or absence of Oxy186 (10 µM). After 72 h, RNA was extracted and analyzed by Q-RT-PCR for the expression of Hh target genes Gli1, Ptch1, and Hip, normalized to Oaz1 expression. […] Luciferase activity was measured and normalized to the Renilla luciferase activity. […]
# [3] = system: Hh pathway target genes Gli1, Ptch1, and Hip in Sufu-/- mouse embryonic fibroblasts; assay: Inhibition of Hh target gene expression in Sufu-/- MEFs, Q-RT-PCR; type: cell-based; conditions: 10 µM, 72 h
# Excerpt: NIH3T3-E1 fibroblasts were obtained from ATCC (Manassas, VA) and cultured, as previously described. CAPAN-1 and PANC-1 human pancreatic cancer cells were obtained from ATCC and cultured in Dulbecco’s Modified Eagle Medium (DMEM) containing 10% heat-inactivated fetal bovine serum (FBS) (Hyclone Laboratories, Logan, UT, USA) and antibiotics, as previously described. The human lung cancer cell lines A549 and H2030 were obtained from ATCC and cultured in RPMI-1640 containing 10% FBS. The human hepatoma cell line HepG2 was obtained from ATCC and cultured in DMEM containing 10% FBS. Mouse embryonic fibroblasts (MEFs) from suppressor of fused (Sufu) null mice (Sufu^−/−) were provided by Dr. Philip Beachy of Stanford University and cultured in DMEM containing 10% FBS. […]
# Total RNA was extracted with the RNeasy Plus Mini Kit from Qiagen, according to the manufacturer’s instructions. […] The cDNAs were then mixed with Qi SYBR Green Supermix (Bio-Rad, Hercules, CA, USA) for quantitative RT-PCR assay using a Bio-Rad I-cycler IQ quantitative thermocycler. […] Fold changes in gene expression were calculated using the ΔΔCt method. […]
# Figure 5 Oxy186 acts downstream of Smo. […] After 72 h, RNA was extracted and analyzed by Q-RT-PCR for the expression of Hh target genes Gli1, Ptch1, and Hip, normalized to Oaz1 expression. […] Luciferase activity was measured and normalized to the Renilla luciferase activity. […]
# A549 cells = assay: Cell counting assay, A549; type: cell-based, human; conditions: 96 h
# Method: A549 and H2030 cells cultured in 12-well plates at 20% confluence were treated with Oxy186, HPI-1, Gant61, or GDC0449 for 96 hours and then trypsinized and suspended in fresh medium. An aliquot of cell suspension was applied to a hemocytometer and counted under a microscope.
# Figure 6 Inhibition of human pancreatic and lung cancer cell proliferation by Oxy186. (a,c) A549, (b) and (d) H2030, (e) PANC-1, and (f) CAPAN-1 cells were treated with the compounds as indicated in RPMI 1640 (a–d) or DMEM (e,f) containing 5% FBS for 96 h and then were trypsinized and counted. Data from a representative experiment are reported as the mean of triplicate determinations ± SD (* p < 0.05 vs. Control; ** p < 0.01 vs. control).
smiles,measurement,setting,value
"C[C@]12CC[C@H](O)C[C@@H]1CC[C@@H]1[C@@H]2CC[C@@]2(C)[C@H]1CC[C@@H]2[C@](C)(O)CCc1ccc(F)cc1 [Oxy186, (3S,5S,8R,9S,10S,13S,14S,17S)-17-((R)-4-(4-fluorophenyl)-2-hydroxybutan-2-yl)-10,13-dimethylhexadecahydro-1H-cyclopenta[a]phenanthren-3-ol]",Inhibition of CM-induced 8XGliBS-luciferase reporter activity,[1],significantly inhibited
same,Inhibition of Gli responsive luciferase reporter trans-activated by over expressed exogenous Gli1,[2],significantly inhibited
same,"Inhibition of high baseline expression of Hh pathway target genes Gli1, Ptch1, and Hip",[3],significant inhibition
same,Inhibition of cell proliferation,A549 cells; 10 µM,significantly inhibited
same,IC50,"A549 cells; Homo sapiens, read-out: IC50 for inhibition of cell proliferation",5 µM
